Entries after “also recorded” stand apart in the source; their conditions may differ. Like-named read-outs stand apart in the source and are kept apart here.
Legend:
[1] = all dose groups; cited from earlier work
[2] = Active (n = 149); cited from earlier work
[3] = test system: epidermal thickening and dermal inflammation; conditions: in vivo; cited from earlier work
[4] = rodent; cited from earlier work
[5] = test system: Th1 and Th17 transcript markers and keratin 16; conditions: cited from earlier work
[6] = test system: telogen hair follicles of normal C57BL/6 mice; assay: induction of anagen by topical treatment of normal mice in telogen; format: in vivo, mouse; conditions: for proliferation in the telogen hair follicle (Ki67) / keratinocyte matrix cells / induction of anagen: vs vehicle; for induction of anagen: topical, mice in telogen
Description: 7-8 weeks old animals in telogen were treated with controls or JAK STAT inhibitors.
Right half of each mouse was administered topical drug, left half of each mouse was treated with DMSO alone.
To test whether inhibition of JAK-STAT signaling could therefore trigger the telogen-to-anagen transition, a topical JAK3 inhibitor was applied to test whether anagen could be induced in normal mouse skin in telogen.

[7] = test system: C3H/HeJ mice with long-standing AA; conditions: for CD8+NKG2D+ T cells in treated skin: flow cytometry
Description: (§1) To make a single cell suspension of mouse skin, fat was removed from the overlying skin in cold PBS and then incubated in collagenase type I (2 mg/ml in PBS) at 32° C. for 75 minutes. After digestion the skin was minced in RPMI/10% fetal bovine serum, filtered through a 70 mM cell strainer, and centrifuged at 1100 g for 5 minutes. The pellet was resuspended in RPMI/10% fetal bovine serum, filtered through a 40 mM cell strainer and spun at 400 g for 5 mins. The pellet was resuspended in FACs buffer (PBS/5% BSA), DAPI to gate on live cells and staining antibodies (listed in Supplemental Data). Cutaneous lymph nodes were pooled minced in RPMI, filtered through a 40 mM cell strainer, centrifuged at 400 g for 5 minutes stained and analysed on a BD LSR II flow cytometer.
(§2) ALADIN scores. The IFN and CTL signatures were used to develop a bivariate score statistic. Individual signature IFN and CTL scores were determined following procedures used in human SLE^,S9,S10. The sets of genes selected to comprise our IFN and CTL signatures were CD8A, GZMB, and ICOS for the CTL signature, and CXCL9, CXCL10, CXCL11, STAT1, and MX1 for the IFN signature. The scores for the prevention mice were calculated in relation to the sham mice; whereas, the scores for the topical treatment experiments were calculated relative to all the samples at week zero.

[8] = test system: alopecia areata in grafted C3H/HeJ mice; conditions: for CD8+NKG2D+ T cells in skin and cutaneous lymph nodes: flow cytometry; for ALADIN score / transcriptional signature / GEDI (CTL and IFN signatures): skin; for development / onset of alopecia areata: systemic treatment from time of grafting
Description: Alopecia areata is graded based on severity, location of inflammatory cells, types and relative numbers of inflammatory cells (granulocytes, mast cells, lymphocytes), follicular dystrophy, etc.
Protocol #1: In the prevention setting, recipient mice will be treated beginning the first week after grafting.
Transfer of Alopecia Areata using grafted C3H/HeJ skin. Normal-haired C3H/HeJ mice were grafted at 8 weeks of age (during the second telogen) with skin from a C3H/HeJ mouse that developed AA spontaneously, as described previously^7. In brief, mice spontaneously affected with AA were euthanized, full thickness skin grafts of approximately 2 cm in diameter were removed and grafted to normal-haired C3H/HeJ mice.
Flow cytometric analysis of skin and cutaneous lymph nodes. To make a single cell suspension of mouse skin, fat was removed from the overlying skin in cold PBS and then incubated in collagenase type I (2 mg/ml in PBS) at 32° C. for 75 minutes. After digestion the skin was minced in RPMI/10% fetal bovine serum, filtered through a 70 mM cell strainer, and centrifuged at 1100 g for 5 minutes. The pellet was resuspended in RPMI/10% fetal bovine serum, filtered through a 40 mM cell strainer and spun at 400 g for 5 mins. The pellet was resuspended in FACs buffer (PBS/5% BSA), DAPI to gate on live cells and staining antibodies (listed in Supplemental Data). Cutaneous lymph nodes were pooled minced in RPMI, filtered through a 40 mM cell strainer, centrifuged at 400 g for 5 minutes stained and analysed on a BD LSR II flow cytometer.
Prevention and Treatment Studies. For prevention studies, mice were treatment beginning the day of grafting (n=5-10 mice per group).
as §2

[9] = test system: C3H/HeJ mice with long-standing alopecia areata; conditions: for CD8+NKG2D+ T cells in skin and cutaneous lymph nodes: flow cytometry; for hair regrowth / reversal of alopecia areata: systemic (pump), established AA
Description: as §1

[10] = C3H/HeJ, mouse, in vivo, 10 mg/kg/day
[11] = test system: human embryonic scalp; assay: drug treatment of human fetal scalp in vitro, hair follicle morphogenesis; format: cell-based; design: dose or concentration left out as unconfirmed; conditions: human embryonic scalp at 20 weeks, vs DMSO
Description: Skin was harvested and sectioned and assessed for hair follicle morphology.

[12] = test system: IL-15 signaling; conditions: human whole blood assays; cited from earlier work
[13] = test system: dermal sheath cells; assay: IL-15-induced LAK cell cytotoxicity against dermal sheath cells; format: cell-based, mouse
Description: In vitro cytotoxicity assays. Determination of specific killing of target cells was performed using CFSE-labeled DS cells at targets mixed with different ratios of effector cells incubated for 5 hours at 37° C. 5% CO2 with or without neutralizing rat anti-mouse NKG2D antibody (20 ug/ml) (Biolegend, CX5). Specific lysis of DS cells was determined flow cytometrically by measuring cell death of CFSE+DS cells using Annexin V/7-AAD.

[14] = test system: IL-15 triggered pSTAT3 activation; assay: IL-15-induced Stat3 activation in T cells; format: cell-based; conditions: T cells / CTL effectors
[15] = topical vs systemic administration

Question: With `N#CCC(C1CCCC1)n1cc(-c2ncnc3[nH]ccc23)cn1` (stereo not drawn) [INCB018424] as the molecule, how does the “Total Lesion Score, decrease over vehicle” value [1] read?
Answer: Its value is no less than 2 ×.

Question: What about the “Adverse event: Abdominal pain, number” value [2] of the same molecule?
Answer: Its value is 3.

Question: And the “Adverse event: Abdominal pain, value in brackets” value [2]?
Answer: Its value is “(2.0)”.

Question: What about the “Adverse event: Application site irritation, pruritus, number” value [2] of the same molecule?
Answer: Its value is 14.

Question: And the “Adverse event: Application site irritation, pruritus, value in brackets” value [2]?
Answer: The value was “(9.3)”.

Question: What about the “Adverse event: Back Pain, value in brackets” value [2] of the same molecule?
Answer: The value was “(3.4)”.

Question: What about the “Adverse event: Headache, number” value [2] of the same molecule?
Answer: The value was 4.

Question: What about the “Adverse event: Headache, value in brackets” value [2] of the same molecule?
Answer: The value was “(2.7)”.

Question: What about the “Adverse event: Influenza, number” value [2] of the same molecule?
Answer: The value was 4.

Question: What about the “Adverse event: Influenza, value in brackets” value [2] of the same molecule?
Answer: The value was “(2.7)”.

Question: What about the “Adverse event: Nasopharyngitis, number” value [2] of the same molecule?
Answer: Its value is 10.

Question: What about the “Adverse event: Nasopharyngitis, value in brackets” value [2] of the same molecule?
Answer: Its value is “(6.7)”.

Question: And the “Adverse event: Sinusitis, number” value [2]?
Answer: Its value is 6.

Question: What about the “Adverse event: Sinusitis, value in brackets” value [2] of the same molecule?
Answer: The value was “(4.0)”.

Question: And the “Adverse event: Upper respiratory tract infection, number” value [2]?
Answer: The value was 10.

Question: And the “Adverse event: Upper respiratory tract infection, value in brackets” value [2]?
Answer: The value was “(6.7)”.

Question: What about the “epidermal thickening and dermal inflammation” value [3] of the same molecule?
Answer: The value was “markedly reduces”.

Question: And the pathological skin thinning [3]?
Answer: The pathological skin thinning was “No pathological skin thinning is observed”.

Question: And the “half-life (t1/2)” value [4]?
Answer: Its value is 3 to 6 h.

Question: And the clinical responses ([5]; psoriasis subjects, topical)?
Answer: The clinical responses was “rapid clinical responses”.

Question: And the “cutaneous Th1/Th17 cytokine responses” value ([5]; psoriasis subjects, topical)?
Answer: The value was “normalization”.

Question: What about the “Th1 and Th17 transcript markers and keratin 16” value ([5]; topical treatment) of the same molecule?
Answer: The value was “decreased”.

Question: For `CNC1CCC(N(Cc2cccc(-c3ccncc3)c2)C(=O)c2sc3ccccc3c2Cl)CC1` (stereo not drawn) [SAG], which “time to induction of anagen” value ([6]; post treatment) is on record?
Answer: The value was 4 to 7 days.

Question: And the “proliferation in the telogen hair follicle (Ki67) / keratinocyte matrix cells” value [6]?
Answer: Its value is “marked proliferation”.

Question: Which results are given for tofacitinib?
Answer: CD8+NKG2D+ T cells in treated skin [7]: significantly decreased; pigmentation of regrown hair coat [7, 15]: darkly pigmented; speed of hair regrowth [7, 15]: very rapid; CD8+NKG2D+ T cells in skin and cutaneous lymph nodes ([8]; listed as JAK3 PTKi): eliminating expansion; CD8+NKG2D+ T cells in skin and cutaneous lymph nodes ([8]; listed as JAK3i): significantly decreased; CD8+NKG2D+ T cells in skin and cutaneous lymph nodes ([8]; listed as JAK3 inhibitor): completely eliminated; expression of CD4, CD8, MHC class I and II in skin ([8]; immunohistochemical staining): significantly decreased; inflammatory biomarkers in the skin, including MHC molecules and IFN signature ([8]; mouse, in vivo): ablating; inflammatory profiles (skin microarray, T cell infiltrate stains, serum markers) ([8]; osmotic pump): decreased inflammatory profiles; mice that developed alopecia ([8]; osmotic pump, by six weeks following transplantation, PBS 4/4, vehicle pump 2/2): 0/5; ALADIN score / transcriptional signature [8]: normalization; GEDI (CTL and IFN signatures) [8]: reduction; development / onset of alopecia areata ([8]; listed as JAK3 PTKi): effectively prevented; development / onset of alopecia areata ([8]; listed as JAK3 inhibitor): do not develop alopecia; CD8+NKG2D+ T cells in skin and cutaneous lymph nodes ([9]; listed as JAK3i): eliminated; CD8+NKG2D+ T cells in skin and cutaneous lymph nodes ([9]; listed as JAK3 inhibitor): elimination; also recorded: devoid; persistence of effect after cessation of treatment ([9]; mouse, in vivo): 2-3 months; hair regrowth / reversal of alopecia areata ([9]; listed as JAK3i): induced hair regrowth all over the body; hair regrowth / reversal of alopecia areata ([9]; listed as JAK3 inhibitor): exhibit hair regrowth; effect on anagen induction compared with SAG ([6]; mouse, in vivo): comparable; time to induction and growth of robust pigmented anagen hairs ([6]; mouse, in vivo): 1-2 weeks; induction of anagen [6]: striking anagen induction

Question: What does the source list for `CC1CCN(C(=O)CC#N)CC1N(C)c1ncnc2[nH]ccc12` (stereo not drawn) [tofacitinib]?
Answer: serum levels [10]: 30 to 40 nM; hair follicle morphology, stage of first anagen of morphogenesis [11]: more advanced; disease recurrence after treatment withdrawal ([7]; additional 8 weeks after withdrawal): no evidence of disease recurrence; untreated areas on the abdomen ([7]; drug applied to back skin only): remained alopecic; CD8+NKG2D+ T cells in treated skin [7]: disappearance; ALADIN transcriptional signature ([7]; mouse, in vivo): normalization; durability of effects after cessation of treatment ([7]; mouse, in vivo): 2-3 months; histological markers of disease ([7]; mouse, in vivo): reversal; time to full coat of hair ([7]; topical 0.5% daily): ≤ 7 weeks; time to complete hair regrowth ([7]; topical therapy): ≤ 12 weeks; reversal of established / long-standing AA ([7]; topical, daily, 0.5%): highly effective; also recorded: reversal; development of cutaneous lymphadenopathy ([8]; 10 mg/kg/day Alzet pump, 5 mice): None; CD8+NKG2D+ T cells in skin and cutaneous lymph nodes [8]: eliminated; also recorded: prevented; IFN-response chemokines and markers of CD8 cytotoxic effectors in skin ([8]; microarray, 13 weeks of treatment vs PBS): elimination; HF NKG2DL expression (e.g. H60 by immunostain) ([8]; mouse, in vivo): reduced although not completely eliminated; durability of disease prevention after treatment withdrawal ([8]; mouse, in vivo): 12 weeks; histological signs of inflammation in skin ([8]; mouse, in vivo): no histological signs of inflammation; inflammatory biomarkers in the skin, including MHC molecules and IFN signature ([8]; mouse, in vivo): down-regulated; inflammatory infiltrate ([8]; photomicrographs, FIG. 53): normalizes; ALADIN score / transcriptional signature [8]: prevented the emergence; GEDI (CTL and IFN signatures) [8]: prevented the emergence; development / onset of alopecia areata [8]: prevents and None and prevented and inhibited; development / onset of alopecia areata ([8]; listed as CP690550): prevention of AA; IL-15 signaling [12]: inhibit; IL-15-induced LAK cell cytotoxic function (dermal sheath cell cytotoxicity) [13]: inhibit; IL-15-induced Stat3 (pSTAT3) activation [14]: block; also recorded: inhibits; hair regrowth / reversal of alopecia areata [9]: complete; durability of effect ([6]; 1% daily for 3 weeks): more than 1 month; number of hair follicles vs vehicle treated ([6]; mouse, in vivo): greater; thickness of hair follicles vs vehicle treated ([6]; mouse, in vivo): greater; induction of anagen [6]: marked induction of anagen; proliferation in the telogen hair follicle (Ki67) / keratinocyte matrix cells [6]: marked proliferation

Source: patent US11806555B2, “Methods for treating hair loss disorders” (THE TRUSTEES OF COLUMBIA UNIVERSITY IN THE CITY OF NEW YORK, priority 2010, dated 2023)
